How the values were obtained:
[1] = system: lower urinary tract obstruction model of rats; assay: Test Example 1: urination function in female rat lower urinary tract obstruction model (cystometry, tissue wet weights, survival); assay type: in vivo; conditions: 2 weeks
Description: A lower urinary tract obstruction model of rats was used as a test system. A test substance was orally administered to the lower urinary tract obstruction model repeatedly over two (2) weeks to examine the action on the urination function in the lower urinary tract obstruction model.
More specifically, the rats (female, Crl:CD(SD), 8-week-old; Charles River Laboratories Japan, Inc.) were operated to form lower urinary tract obstruction and repeatedly received oral administration of the test substance at a frequency of once a day over two (2) weeks. After the completion of the administration, each rat was subjected to bladder catheterization under anesthesia, cystometry under no anesthesia, then cystometry under urethane anesthesia, and euthanasia under deep anesthesia, and the tissues (bladder, kidney) of the rat were extracted or surgically removed. As a normal group, the rats without operation for forming lower urinary tract obstruction were used.
The test system, the test substances, and the dosage are as follows. • Normal group: 0.5 v/v. Polysorbate 80 solution, 10 mL/kg (n=6) • Solvent group (control group): 0.5 v/v % Polysorbate 80 solution, 10 mL/kg (n=15) • Group A: Compound A, 10 mg/kg (n=15) • Group B3: Compound B, 3 mg/kg (n=7) • Group B10: Compound B, 10 mg/kg (n=7)
The residual urine volume, the urination efficiency, and the bladder capacity were measured as follows.
After urination, the residual urine was aspirated from the outlet end of the catheter placed in the bladder to measure the volume (mL) of the residual urine.
After urination, the weight of the voided urine was measured to determine the voided volume (g=mL), and then the urination efficiency was calculated by the following equation: Urination efficiency (%)=[(Voided volume (mL))/(Voided volume (mL)+Residual urine volume (mL))]×100 [Bladder Capacity]
The bladder capacity was calculated from the voided volume and the residual urine volume by the following equation: Bladder capacity(mL)=Voided volume (mL)+Residual urine volume (mL)
Moreover, the wet weight of the extracted bladder and that of the extracted kidney were measured.

[2] = system: model of a urination disorder associated with streptozocin-induced diabetes; assay: Test Example 6: urination disorder model associated with streptozocin-induced diabetes, compound A versus dutasteride; assay type: in vivo, rat
Description: As described below, a model of a urination disorder associated with streptozocin-induced diabetes was prepared as a urination disorder model in accordance with Test Example 4 to evaluate the effects of the compound A and the compound C on a urination disorder. This model has no benign prostatic hyperplasia and is a model of a urination disorder associated with neuropathy and smooth muscle contraction disorder.
The body weights of Rats (male, Crl:CD(SD), 5-week-old; Charles River Laboratories Japan, Inc.) were measured. On the basis of the body weight, the rats were grouped or divided into two (2) groups. The day after the rats were grouped, a fist group received intraperitoneal administration of a citrate buffer (pH 4.5) (10 mL/kg) having a concentration of 0.1 mmol/L, and a second group received intraperitoneal administration of streptozocin (STZ; Sigma-Aldrich) (50 mg/kg). Streptozocin (STZ) was administered in the form of a solution of streptozocin having a concentration of 5 mg/mL in the citrate buffer.
About one (1) week after streptozocin (STZ) was administered, the body weight and the fasting blood glucose were measured. In the streptozocin (STZ) administration group (the second group), individuals having a fasting blood glucose level of not less than 300 mg/dL were used as animals with induced diabetes. These animals with induced diabetes are a model having no abnormality of the prostate (having no benign prostatic hyperplasia). On the basis of the body weight and the fasting blood glucose level, the animals (models) with induced diabetes were grouped or divided into three (3) groups by randomized, multivariable block allocation.
To the three model groups with induced diabetes, a 0.5 v/v % Polysorbate 80 solution (0.5% P) (10 mL/kg), the compound A (3 mg/kg), and the compound C (dutasteride) (0.3 mg/kg) were orally administered, respectively, wherein the administration schedule in all groups was a frequency of once a day, only on weekdays, over four (4) weeks. Moreover, to the above-mentioned first group, a 0.5 v/v % Polysorbate 80 solution (0.5% P) (10 mL/kg) was orally administered in the same administration schedule (normal group). On the last day of administration, a cannula was inserted into and secured to the dome of the bladder under isoflurane anesthesia, and cystometry (Cystometogram, CMG) was conducted in the order of under awake condition and under urethane anesthesia to measure the intravesical pressure, the voided volume, and the residual urine volume. After the completion of the measurement, the blood was collected under deep isoflurane anesthesia, and then the prostate (ventral prostate, dorsolateral prostate) was extracted and each was weighed. Moreover, the blood glucose level in the collected blood was measured.
The test substances and the dosage in the test system (rats having the urination disorder associated with diabetes) are as follows. • Normal group: citrate buffer 10 mL/kg (intraperitoneal administration), 0.5% P 10 mL/kg (oral administration) (n=10) • Solvent group (control group): STZ 50 mg/kg (intraperitoneal administration), 0.5% P 10 mL/kg (oral administration) (n=10) • Group A3: STZ 50 mg/kg (intraperitoneal administration), Compound A 3 mg/kg (oral administration) (n=10) • Group C0.3: STZ 50 mg/kg (intraperitoneal administration), Compound C (dutasteride) 0.3 mg/kg (oral administration) (n=10)
Urination parameter: In the same manner as in Test Example 4, the residual urine volume (mL) and the urination efficiency % were determined as urination parameters in each urination, and the average value of two measurements was taken as a measured value of each individual.
Prostate weight: In the same manner as in Test Example 4, the weight of the prostate (ventral prostate, dorsolateral prostate, and whole) was converted to a tissue weight per 100 g of the body weight. […]

[3] = system: uterine weight associated with rat deciduoma formation; assay: Test Example 5: antiprogesterone activity, uterine weight associated with rat deciduoma formation in ovariectomized rats; assay type: in vivo; conditions: 192 h, Group D: 3 mg/kg oral once a day, 8 days, ovariectomized female rats, compared with solvent group, FIG. 18, read-out: inhibition rate of uterine weight increase (antiprogesterone action)
Description: For the compound A and the compound D (mifepristone), the antiprogesterone activity was measured. Specifically, a sex hormone and a test substance were repeatedly administered to ovariectomized rats as a test system to examine the antiprogesterone action (antiprogesterone activity) based on, as an index, the fluctuation of the uterine weight (the inhibitory action relative to the increase of the weight) associated with rat deciduoma formation.
More specifically, rats (female, Crl:CD(SD), 5-week-old: Charles River Laboratories Japan, Inc.) were subjected to ovariectomy, and from one (1) week after the ovariectomy, a high dose estrone or 5 μg/one animal was hypodermically administered to the rats once a day for three (3) days. From the day after one day rest period, the rats received, once a day over eight (8) days, hypodermic administration of a low dose estrone (1 μg/one animal), intramuscular administration of progesterone (6 mg/kg), and oral administration of a test substance. In the middle of the administration, on Day 4 of the start of administration, the rats were subjected to a stimulation treatment of decidualization reaction to the right uterus. The day after the final administration, the uterine weight (right uterine body) was measured (n=6). Group E was subjected to ovariectomy and a stimulation treatment of decidualization reaction but was not subjected to a hormone treatment.
The test substances and the dosage in the test system (ovariectomized rats) are as follows. • Group E: rats with ovariectomy without hormone treatment • 0.5 v/v % Polysorbate 80 solution, 10 mL/kg (n=6) • Solvent group (control group): 0.5 v/v % Polysorbate 80 solution, 10 mL/kg (n=6) • Group A3: Compound A, 3 mg/kg (n=6) • Group A10: Compound A, 10 mg/kg (n=6) • Group A30: Compound A, 30 mg/kg (n=6) • Group D: Compound D (mifepristone), 3 mg/kg (n=6)

[4] = Group C0.3: 0.3 mg/kg oral, 4 weeks, relative to solvent group

In the case of `CC(=O)O[C@]1(C(C)=O)CC[C@H]2[C@@H]3C=C(Cl)C4=CC(=O)OC[C@]4(C)[C@H]3CC[C@@]21C` [Compound B, 17α-acetoxy-6-chloro-2-oxa-4,6-pregnadiene-3,20-dione, reference compound], the residual urine volume ([1]; Groups B3 and B10: 3 mg/kg and 10 mg/kg oral once a day, vs control group, FIG. 1) is reported as “significantly increased”, the urination efficiency ([1]; Groups B3 and B10: 3 mg/kg and 10 mg/kg oral once a day, vs control group, FIG. 2) is reported as “reduced” and the bladder capacity ([1]; Groups B3 and B10: 3 mg/kg and 10 mg/kg oral once a day, vs control group, FIG. 3) is reported as “significantly increased”. For the same molecule, the bladder wet weight ([1]; Groups B: 3 mg/kg and 10 mg/kg oral once a day, FIG. 4) was “in the direction of increasing”, the kidney wet weight ([1]; Groups B: 3 mg/kg and 10 mg/kg oral once a day, FIG. 5) was “in the direction of increasing” and the survival rate ([1]; Groups B: 3 mg/kg and 10 mg/kg oral once a day, FIG. 6) was “decreased”.

In the case of `C[C@]12C=CC(=O)N[C@@H]1CC[C@@H]1[C@@H]2CC[C@]2(C)[C@@H](C(=O)Nc3cc(C(F)(F)F)ccc3C(F)(F)F)CC[C@@H]12` [Compound C, dutasteride, reference compound], the “therapeutic effect on diabetes (blood glucose level)” value ([2]; Group C0.3: 0.3 mg/kg oral, 4 weeks) is reported as “no therapeutic effect on diabetes”, the “Dorsolateral prostate (atrophy rate)” value [2, 4] is reported as “(37.5%)” and the “Ventral prostate (atrophy rate)” value [2, 4] is reported as “(42.7%)”. For the same molecule, the “Whole prostate (atrophy rate)” value [2, 4] was “(40.7%)”, the “bladder contraction force on urination by nomogram analysis (distance from the origin)” value ([2]; Group C0.3: 0.3 mg/kg, FIG. 21) was “almost the same position as the solvent group” and the residual urine volume ([2]; Group C0.3: 0.3 mg/kg, cystometry under awake condition, vs solvent group, FIG. 19) was “did not statistically affect”. The urination efficiency ([2]; Group C0.3: 0.3 mg/kg, cystometry under awake condition, vs solvent group, FIG. 20) was “did not statistically affect”.

`CC#C[C@]1(O)CC[C@H]2[C@@H]3CCC4=CC(=O)CCC4=C3[C@@H](c3ccc(N(C)C)cc3)C[C@@]21C` [Compound D, mifepristone, reference compound] was tested, and the inhibition at 3 mg/kg [3] was 89.5%.

Source: patent US12458650B2, “Urination disorder-improving agent” (ASKA Pharmaceutical Co., Ltd., priority 2019, dated 2025)
